In the assay the target is T1, Cholesterol side-chain cleavage enzyme, mitochondrial (Bos taurus, UniProt P00189).
T1 sequence (P00189 whole entry): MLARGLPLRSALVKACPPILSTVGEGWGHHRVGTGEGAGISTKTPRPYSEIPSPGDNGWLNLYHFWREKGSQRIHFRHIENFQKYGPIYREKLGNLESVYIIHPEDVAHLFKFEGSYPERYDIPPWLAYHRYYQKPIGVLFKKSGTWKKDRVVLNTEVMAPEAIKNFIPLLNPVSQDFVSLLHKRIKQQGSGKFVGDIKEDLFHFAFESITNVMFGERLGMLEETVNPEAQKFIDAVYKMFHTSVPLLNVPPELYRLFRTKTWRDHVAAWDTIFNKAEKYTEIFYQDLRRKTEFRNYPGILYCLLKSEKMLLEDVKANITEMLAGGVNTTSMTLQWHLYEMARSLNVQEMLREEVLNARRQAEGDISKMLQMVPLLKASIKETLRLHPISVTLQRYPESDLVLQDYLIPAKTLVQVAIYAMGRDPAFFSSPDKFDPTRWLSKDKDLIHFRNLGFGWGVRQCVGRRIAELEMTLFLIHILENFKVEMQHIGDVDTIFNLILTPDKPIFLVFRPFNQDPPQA
Particulars: read-out: I50.
Take `CN1C(=O)C2CC2(c2ccc(N)cc2)C1=O` (stereo not drawn): the IC50 came out at 460 µM. As for `C=CCN1C(=O)C2CC2(c2ccc(N)cc2)C1=O` (stereo not drawn), the IC50 was determined as 274 µM. As for `CCN1C(=O)C2CC2(c2ccc(N)cc2)C1=O` (stereo not drawn), the IC50 stood at 305 µM. The figure for `C#CCN1C(=O)C2CC2(c2ccc(N)cc2)C1=O` (stereo not drawn) is 292 µM; for `CC(C)CN1C(=O)C2CC2(c2ccc(N)cc2)C1=O` (stereo not drawn) it is 310 µM; for `Nc1ccc(C23CC2C(=O)N(Cc2ccccc2)C3=O)cc1` (stereo not drawn) it is 290 µM. As to `CC(C)N1C(=O)C2CC2(c2ccc(N)cc2)C1=O` (stereo not drawn), the IC50 was determined as 320 µM. In the case of `CC(C)(C)CN1C(=O)C2CC2(c2ccc(N)cc2)C1=O` (stereo not drawn), the IC50 amounted to 294 µM.

The values above are taken from ChEMBL document CHEMBL1124116 (J Med Chem, 1988).
